Data set [1] deals with T1, Solute carrier organic anion transporter family member 1B1 (Homo sapiens, UniProt Q9Y6L6).
T1 sequence (Q9Y6L6 whole entry): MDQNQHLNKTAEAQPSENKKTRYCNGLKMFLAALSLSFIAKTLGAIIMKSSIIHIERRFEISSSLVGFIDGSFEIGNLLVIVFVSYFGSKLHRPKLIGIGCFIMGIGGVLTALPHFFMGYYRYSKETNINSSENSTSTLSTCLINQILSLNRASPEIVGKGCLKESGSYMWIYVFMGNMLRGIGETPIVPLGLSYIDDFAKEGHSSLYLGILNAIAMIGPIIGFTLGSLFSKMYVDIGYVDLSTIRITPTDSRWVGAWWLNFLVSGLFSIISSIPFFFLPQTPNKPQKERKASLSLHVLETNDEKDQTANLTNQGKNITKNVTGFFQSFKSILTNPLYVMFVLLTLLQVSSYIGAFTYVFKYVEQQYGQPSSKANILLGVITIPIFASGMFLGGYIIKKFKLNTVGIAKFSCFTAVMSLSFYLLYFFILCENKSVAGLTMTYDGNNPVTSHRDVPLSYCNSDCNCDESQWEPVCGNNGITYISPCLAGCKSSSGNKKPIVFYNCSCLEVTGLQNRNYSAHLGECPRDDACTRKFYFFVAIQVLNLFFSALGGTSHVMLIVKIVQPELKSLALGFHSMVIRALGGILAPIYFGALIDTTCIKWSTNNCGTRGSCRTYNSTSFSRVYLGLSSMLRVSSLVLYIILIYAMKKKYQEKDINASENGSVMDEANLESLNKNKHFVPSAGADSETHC
The data set is described as follows: Inhibition of human liver OATP1B1 expressed in HEK293 Flp-In cells assessed as reduction in E17-betaG uptake by scintillation counting. The class given is ADME, cell-based.

Another data set addresses T2, OATP1B1 (Homo sapiens, UniProt Q9Y6L6).
T2 sequence (Q9Y6L6 whole entry): T1 sequence (Q9Y6L6 whole entry)
Description: (§1) Inhibition of human liver OATP1B1 expressed in HEK293 Flp-In cells assessed as reduction in E17-betaG uptake at 20 uM by scintillation counting.

For data set [2], the target named is T3, Solute carrier organic anion transporter family member 2B1 (Homo sapiens, UniProt O94956).
T3 sequence (O94956 whole entry): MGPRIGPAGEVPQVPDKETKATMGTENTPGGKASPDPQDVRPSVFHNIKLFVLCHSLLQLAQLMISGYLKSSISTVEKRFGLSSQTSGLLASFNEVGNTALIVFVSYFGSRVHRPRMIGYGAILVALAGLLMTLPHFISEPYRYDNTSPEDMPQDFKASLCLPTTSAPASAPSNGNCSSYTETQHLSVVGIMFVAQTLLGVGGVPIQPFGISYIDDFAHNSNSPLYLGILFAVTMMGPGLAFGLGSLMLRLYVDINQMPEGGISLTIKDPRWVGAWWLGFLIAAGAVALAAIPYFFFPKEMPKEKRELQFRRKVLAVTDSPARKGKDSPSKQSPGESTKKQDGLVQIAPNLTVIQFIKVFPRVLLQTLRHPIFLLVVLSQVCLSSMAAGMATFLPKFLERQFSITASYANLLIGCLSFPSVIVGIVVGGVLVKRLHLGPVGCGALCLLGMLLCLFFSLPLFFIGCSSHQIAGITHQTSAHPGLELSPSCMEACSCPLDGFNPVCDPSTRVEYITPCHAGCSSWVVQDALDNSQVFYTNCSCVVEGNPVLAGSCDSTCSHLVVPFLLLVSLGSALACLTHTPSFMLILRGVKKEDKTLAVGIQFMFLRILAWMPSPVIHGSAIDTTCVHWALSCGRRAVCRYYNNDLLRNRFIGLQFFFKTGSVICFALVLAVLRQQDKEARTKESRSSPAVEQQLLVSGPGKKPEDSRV
The data set is described as follows: Inhibition of human liver OATP2B1 expressed in HEK293 Flp-In cells assessed as reduction in [3H]E3S uptake at 20 uM incubated for 5 mins by scintillation counting. The settings on record: hek293, 5 min.

The target in data set [3] is T3, Solute carrier organic anion transporter family member 2B1. The data set is described as follows: Inhibition of human liver OATP2B1 expressed in HEK293 Flp-In cells assessed as reduction in [3H]E3S uptake incubated for 5 mins by scintillation counting. Format: ADME, cell-based.
A short description of data set [4]: Fraction unbound in plasma. The class given is ADME, cell-free.
Data set [5] has as its target T1, Solute carrier organic anion transporter family member 1B1. Described as §1. Conditions: hek293, 20 µM.
The target in data set [6] is T4, Solute carrier organic anion transporter family member 1B3 (Homo sapiens, UniProt Q9NPD5).
T4 sequence (Q9NPD5 whole entry): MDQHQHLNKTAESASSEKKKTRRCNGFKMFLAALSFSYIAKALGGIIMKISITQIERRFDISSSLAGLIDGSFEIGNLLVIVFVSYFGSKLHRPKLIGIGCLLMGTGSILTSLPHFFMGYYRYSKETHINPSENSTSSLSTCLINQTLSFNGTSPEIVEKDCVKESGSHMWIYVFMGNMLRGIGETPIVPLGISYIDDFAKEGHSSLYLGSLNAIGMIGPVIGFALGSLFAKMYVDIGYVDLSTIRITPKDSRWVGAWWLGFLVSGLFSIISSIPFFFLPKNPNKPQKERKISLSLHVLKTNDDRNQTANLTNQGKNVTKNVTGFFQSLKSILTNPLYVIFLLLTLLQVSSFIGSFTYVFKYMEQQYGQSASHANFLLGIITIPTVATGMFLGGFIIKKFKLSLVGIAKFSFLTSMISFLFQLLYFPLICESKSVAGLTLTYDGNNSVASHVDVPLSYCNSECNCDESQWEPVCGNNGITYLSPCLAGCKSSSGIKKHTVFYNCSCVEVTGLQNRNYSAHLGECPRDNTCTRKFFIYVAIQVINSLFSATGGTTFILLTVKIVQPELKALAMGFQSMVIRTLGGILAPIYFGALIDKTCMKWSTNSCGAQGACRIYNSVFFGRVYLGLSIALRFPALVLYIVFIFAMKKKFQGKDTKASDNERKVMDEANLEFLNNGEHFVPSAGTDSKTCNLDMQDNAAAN
The data set is described as follows: Inhibition of human liver OATP1B3 expressed in HEK293 Flp-In cells assessed as reduction in [3H]E17-betaG uptake at 20 uM incubated for 5 mins by scintillation counting. The settings on record: hek293, 5 min.

Data set [7] deals with T4, Solute carrier organic anion transporter family member 1B3. The data set is described as follows: Activity at human liver OATP1B3 expressed in HEK293 Flp-In cells assessed as rate of compound transport per mg of protein. The class given is ADME, cell-based.
A further data set addresses T5, OATP1B3 (Homo sapiens, UniProt Q9NPD5).
T5 sequence (Q9NPD5 whole entry): T4 sequence (Q9NPD5 whole entry)
Description: Activity at human liver OATP1B3 expressed in HEK293 Flp-In cells. Format: ADME, cell-based. Conditions: HEK293 Flp-In cells expressing OATP1B3.

Data set [8] addresses T4, Solute carrier organic anion transporter family member 1B3. The data set is described as follows: Ratio of Vmax to Km for human liver OATP1B3 expressed in HEK293 Flp-In cells assessed per mg protein. The class given is ADME, cell-based.
The subject of a further data set is OATP1B1 versus OATP1B3. Description: Selectivity index, ratio of IC50 for human liver OATP1B1 to IC50 for OATP1B3. The settings on record: read-out: Ratio IC50.
The target of data set [9] is T4, Solute carrier organic anion transporter family member 1B3. Description: Inhibition of human liver OATP1B3 expressed in HEK293 Flp-In cells assessed as reduction in [3H]E17-betaG uptake incubated for 5 mins by scintillation counting. The class given is ADME, cell-based.
The mark [10] stands for this setting: HEK293 Flp-In cells expressing OATP1B1, probe E17-betaG.

We go through 7 molecules from ChEMBL document CHEMBL2163248, “Classification of inhibitors of hepatic organic anion transporting polypeptides (OATPs): influence of protein expression on drug-drug interactions” (J Med Chem, 2012).

For `CCOc1ccc(-c2nc3cc(-c4nc5cc(N6CCN(C)CC6)ccc5[nH]4)ccc3[nH]2)cc1`, in [1], the IC50 is 19 µM. In addition, the inhibition at 20 µM on OATP1B1 (hek293) was found to be 48.1%. Besides, the INH in data set [2] was 12.7%.

Take `C#Cc1cccc(Nc2ncnc3cc(OCCOC)c(OCCOC)cc23)c1` [ERLOTINIB]: in [3], the IC50 was found to be 0.55 µM. For the same molecule, in data set [4], the “Cp(f)” value is 400 nM. For the same molecule, the INH was determined as 10.6% in data set [5], 27.5% in data set [6] and 93.7% in data set [2].

Consider `C[C@]12CC[C@@H]3c4ccc(O)cc4CC[C@H]3[C@@H]1CC[C@@H]2O[C@@H]1O[C@H](C(=O)O)[C@@H](O)[C@H](O)[C@H]1O` [ESTRADIOL 17B GLUCURONIDE], for which the maximal velocity (Vmax) in [7] was 10.12 pmol/min. The inhibition at 20 µM on OATP1B1 (setting [10]) is 67.9%. Also, the figures for the INH in data set [6] and in data set [2] were 69% and -12.2%, respectively. For the same molecule, the Km at OATP1B3 is 11.7 µM. In addition, the Vmax/Km in data set [8] stood at 0.86 µL/min.

`CC[C@H](C)C(=O)O[C@H]1C[C@H](O)C=C2C=C[C@H](C)[C@H](CC[C@@H](O)C[C@@H](O)CC(=O)O)[C@H]21` [PRAVASTATIN]: the concentration for half-maximal inhibition (IC50) in [1] was 3.6 µM. The values for the INH in [5], in [6] and in data set [2] were 52.2%, 5.4% and 36.8%, respectively.

Consider `CSCC[C@H](NC(=O)[C@H](Cc1ccc(OS(=O)(=O)O)cc1)NC(=O)[C@@H](N)CC(=O)O)C(=O)NCC(=O)N[C@@H](Cc1c[nH]c2ccccc12)C(=O)N[C@@H](CCSC)C(=O)N[C@@H](CC(=O)O)C(=O)N[C@@H](Cc1ccccc1)C(N)=O` [SINCALIDE], for which the inhibition at 20 µM at OATP1B1 (setting [10]) is 89.3%. For the same molecule, the INH in data set [6] was 96.9%; in data set [2] it was 60.1%.

Turning to `C[C@H](CCC(=O)NCCS(=O)(=O)O)[C@H]1CC[C@H]2[C@@H]3CC[C@@H]4C[C@H](O)CC[C@]4(C)[C@H]3C[C@H](O)[C@]12C` [TAURODEOXYCHOLIC ACID], the inhibition at 20 µM on OATP1B1 (setting [10]) turned out to be 81.7%. Further, the INH in [6] is 61.4%; in data set [2], 85.3%.

Turning to `CC[C@]1(O)C[C@H]2CN(CCc3c([nH]c4ccccc34)[C@@](C(=O)OC)(c3cc4c(cc3OC)N(C=O)[C@H]3[C@@](O)(C(=O)OC)[C@H](OC(C)=O)[C@]5(CC)C=CCN6CC[C@]43[C@@H]65)C2)C1` [VINCRISTINE], the IC50 worked out at 44 µM in data set [1] and 11 µM in data set [9]. Besides, the selectivity ratio in the data set on OATP1B1 versus OATP1B3 stood at 4. The INH in data set [5] was determined as 3.9%; in data set [6], 59.8%; in data set [2] it was 13%.

As a reminder, the IC50 is the concentration needed to halve the response being measured. In general, inhibition refers to the change of the read-out against control, counted positive when it falls. One may read the Vmax as the top rate of the reaction or transport when substrate is in excess. The Km is the concentration of substrate that gives half-maximal velocity.
